Measurements from ChEMBL document CHEMBL5512629, “Insight into small-molecule inhibitors targeting extracellular nucleotide pyrophosphatase/phosphodiesterase1 for potential multiple human diseases” (Eur J Med Chem, 2024).
Each block holds one molecule with its values, some of them ahead of it.

Legend:
[1] = target: T1, Ectonucleotide pyrophosphatase/phosphodiesterase family member 1 (Homo sapiens, UniProt P22413); assay: Inhibition of ENPP1 (unknown origin)
T1 sequence (P22413 whole entry): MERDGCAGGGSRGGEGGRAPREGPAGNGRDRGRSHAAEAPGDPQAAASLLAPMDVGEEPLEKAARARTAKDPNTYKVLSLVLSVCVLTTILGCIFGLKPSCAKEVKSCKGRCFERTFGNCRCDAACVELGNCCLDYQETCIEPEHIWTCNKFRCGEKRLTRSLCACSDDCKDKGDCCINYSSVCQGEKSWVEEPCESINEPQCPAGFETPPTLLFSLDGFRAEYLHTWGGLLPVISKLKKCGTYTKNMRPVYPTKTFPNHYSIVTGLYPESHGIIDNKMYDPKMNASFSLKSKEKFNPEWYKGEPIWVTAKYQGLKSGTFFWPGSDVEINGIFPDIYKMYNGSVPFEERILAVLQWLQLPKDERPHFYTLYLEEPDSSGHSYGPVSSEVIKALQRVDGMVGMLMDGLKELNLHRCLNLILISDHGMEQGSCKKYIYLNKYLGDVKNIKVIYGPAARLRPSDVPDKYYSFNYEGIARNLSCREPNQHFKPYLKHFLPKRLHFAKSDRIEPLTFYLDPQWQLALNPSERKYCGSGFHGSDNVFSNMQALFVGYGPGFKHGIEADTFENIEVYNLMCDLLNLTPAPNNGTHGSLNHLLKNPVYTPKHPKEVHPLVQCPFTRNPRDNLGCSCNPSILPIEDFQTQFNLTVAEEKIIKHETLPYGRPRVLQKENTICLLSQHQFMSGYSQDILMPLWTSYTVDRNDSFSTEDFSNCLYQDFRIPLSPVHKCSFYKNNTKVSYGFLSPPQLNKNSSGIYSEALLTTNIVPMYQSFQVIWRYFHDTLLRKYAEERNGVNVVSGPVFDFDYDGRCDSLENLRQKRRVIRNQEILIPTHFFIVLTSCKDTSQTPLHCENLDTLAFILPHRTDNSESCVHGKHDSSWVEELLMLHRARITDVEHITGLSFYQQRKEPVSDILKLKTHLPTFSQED

[2] = target: T1, Ectonucleotide pyrophosphatase/phosphodiesterase family member 1; assay: Binding affinity to ENPP1 (unknown origin) assessed as inhibition constant
[3] = target: T1, Ectonucleotide pyrophosphatase/phosphodiesterase family member 1; assay: Inhibition of human ENPP1
[4] = Oral bioavailability in mouse; assay type: ADME, organism-based; conditions: in vivo
[5] = target: T1, Ectonucleotide pyrophosphatase/phosphodiesterase family member 1; assay: Binding affinity to human ENPP1 assessed as inhibition constant

IC50 [1]: 260000 nM
SMILES: Cc1nc2ncnn2c(N(C)C)c1Cc1cccc(N)c1

SMILES: Nc1ncnc2c1ncn2[C@@H]1O[C@H](COP(=O)(O)CP(=O)(O)OP(O)(O)=S)[C@@H](O)[C@H]1O
Ki [2]: 20000 nM

IC50 [3]: 360 nM
SMILES: COc1cc2cc(-n3cc(C)c4ccccc43)n3c4ccccc4c(C)c3c2cc1OC

bioavailability [4]: 65%
SMILES: Cn1nc(Cc2ccc(NS(N)(=O)=O)cc2)c2ccccc2c1=O

IC50 [1]: 2060 nM
SMILES: COc1ccc(NC(=O)CSc2nc3c(C)c(C#N)ncc3[nH]2)cc1O

Ki [5]: 26.9 nM
SMILES: O=C(/C=C/c1ccc(O)c(O)c1)O[C@H](Cc1ccc(O)c(O)c1)C(=O)O [ROSMARINIC ACID]

Ki [5]: < 2 nM
SMILES: COc1cccc2c(N3CCC(CCP(=O)(O)O)CC3)ncnc12
